In paper PMC12692795, “Design and Synthesis of Structurally Modified Analogs of 24Z-Isomasticadienonic Acid with Enhanced Anti-Proliferative Activity” (Molecules, 2025):
Where two headings read alike, the source gives them in different places.

How the values were obtained:
[1] = system: panel of human cancer cell lines (Capan-1, HCT-116, LN-229, NCI-H460, DND-41, HL-60, K-562, Z-138)
Experimental: (§1) Human cancer cell lines used in this study included Capan-1, HCT-116, NCI-H460, LN-229, HL-60, K-562, and Z-138, all obtained from the American Type Culture Collection (ATCC). The DND-41 cell line was sourced from the Deutsche Sammlung von Mikroorganismen und Zellkulturen (DSMZ). All cell lines were cultured in media obtained from Gibco Life Technologies, supplemented with 10% fetal bovine serum (HyClone, Logan, UT, USA). Adherent cell lines were seeded in 384-well tissue culture plates at the following densities: Capan-1 at 500 cells/well, and HCT-116, NCI-H460, and LN-229 at 1500 cells/well. After overnight incubation to allow cell attachment, cells were treated with a seven-point serial dilution of test compounds, ranging from 100 µM to 0.006 µM. Suspension cell lines were seeded as follows: HL-60, K-562, and Z-138 at 2500 cells/well, and DND-41 at 5500 cells/well, using the same compound concentration range. All treatments were performed in 384-well plates under identical conditions. Following 72 h of compound exposure, cell viability was assessed using the CellTiter 96® AQueous One Solution Cell Proliferation Assay (MTS, Promega, Leiden, The Netherlands), following the manufacturer’s protocol. The final assay mixture contained 333 µg/mL MTS and 25 µM phenazine methosulfate (PMS). Absorbance was measured at 490 nm using a SpectraMax Plus 384 microplate reader (Molecular Devices, San Jose, CA, USA). Optical density values were used to calculate the half-maximal inhibitory concentration (IC50) for each compound. All compounds were tested in a minimum of two independent biological replicates to ensure reproducibility.

[2] = system: HL-60 (acute myeloid leukemia); assay: Antitumoral assay (MTS, 72 h), HL-60; settings: Homo sapiens, HL-60, 72 h, read-out: Cytotoxicity IC50, HL-60
Experimental: (§2) Human cancer cell lines used in this study included Capan-1, HCT-116, NCI-H460, LN-229, HL-60, K-562, and Z-138, all obtained from the American Type Culture Collection (ATCC). The DND-41 cell line was sourced from the Deutsche Sammlung von Mikroorganismen und Zellkulturen (DSMZ). All cell lines were cultured in media obtained from Gibco Life Technologies, supplemented with 10% fetal bovine serum (HyClone, Logan, UT, USA). […] After overnight incubation to allow cell attachment, cells were treated with a seven-point serial dilution of test compounds, ranging from 100 µM to 0.006 µM. Suspension cell lines were seeded as follows: HL-60, K-562, and Z-138 at 2500 cells/well, and DND-41 at 5500 cells/well, using the same compound concentration range. All treatments were performed in 384-well plates under identical conditions. Following 72 h of compound exposure, cell viability was assessed using the CellTiter 96® AQueous One Solution Cell Proliferation Assay (MTS, Promega, Leiden, The Netherlands), following the manufacturer’s protocol. The final assay mixture contained 333 µg/mL MTS and 25 µM phenazine methosulfate (PMS). Absorbance was measured at 490 nm using a SpectraMax Plus 384 microplate reader (Molecular Devices, San Jose, CA, USA). Optical density values were used to calculate the half-maximal inhibitory concentration (IC50) for each compound. All compounds were tested in a minimum of two independent biological replicates to ensure reproducibility.

[3] = system: K-562 (chronic myeloid leukemia); assay: Antitumoral assay (MTS, 72 h), K-562; settings: Homo sapiens, K562, 72 h, read-out: Cytotoxicity IC50, K562
Experimental: as §2

[4] = system: Z-138 (non-Hodgkin's lymphoma); assay: Antitumoral assay (MTS, 72 h), Z-138; settings: Homo sapiens, Z-138, 72 h, read-out: Cytotoxicity IC50, Z138
Experimental: as §2

LN-229 (glioblastoma) = assay: Antitumoral assay (MTS, 72 h), LN-229; settings: Homo sapiens, LN-229, 72 h, read-out: Cytotoxicity IC50, LN229
Experimental: as §1

[5] = system: DND-41 (acute lymphoblastic leukemia); assay: Antitumoral assay (MTS, 72 h), DND-41; settings: Homo sapiens, DND41, 72 h, read-out: Cytotoxicity IC50, DND-41
Experimental: as §2

[6] = system: Capan-1 (pancreatic adenocarcinoma); assay: Antitumoral assay (MTS, 72 h), Capan-1; settings: Homo sapiens, CAPAN-1, 72 h, read-out: Cytotoxicity IC50, Capan-1
Experimental: as §1

[7] = system: HCT-116 (colorectal carcinoma); assay: Antitumoral assay (MTS, 72 h), HCT-116; settings: Homo sapiens, HCT-116, 72 h, read-out: Cytotoxicity IC50, HCT-116
Experimental: as §1

[8] = system: NCI-H460 (lung carcinoma); assay: Antitumoral assay (MTS, 72 h), NCI-H460; settings: Homo sapiens, NCI-H460, 72 h, read-out: Cytotoxicity IC50, NCl-H460
Experimental: as §1

[9] = system: panel of human cancer cell lines (Capan-1, HCT-116, LN-229, NCI-H460, DND-41, HL-60, K-562, Z-138); assay: Antitumoral evaluation across the panel of solid and hematological cancer cell lines; settings: 8 cancer cell lines, 72 h, MTS
Experimental: as §1

[10] = system: peripheral blood mononuclear cells (PBMCs); assay: Cell viability of PBMCs (MTS, 72 h); assay type: cell-based, Human; settings: 72 h exposure, duplicate
Experimental: A buffy coat preparation sourced from a healthy donor was acquired from the Blood Transfusion Center in Leuven, Belgium. Peripheral blood mononuclear cells (PBMCs) were separated using density gradient centrifugation over Lymphoprep (density: 1.077 g/mL) from Nycomed. These cells were then cultured in cell culture medium (RPMI, Gibco, Waltham, MA, USA) supplemented with 10% FBS. The PBMCs were seeded at a density of 28,000 cells per well in 384-well tissue culture plates containing the test compounds at concentrations ranging from 50 µM to 3.2 nM (for compounds 3–11 and IMNA) and from 10 µM to 0.6 nM (for etoposide). Following a 72 h incubation period, cell viability was assessed using the MTS cell viability assay. Each compound was evaluated in duplicate.

C/C(=C/CC[C@H](C)[C@@H]1CC[C@]2(C)C3=C(CC[C@@]12C)[C@@]1(C)CC(Br)C(=O)C(C)(C)C1CC3)C(=O)O (mixture of isomers) [Compound 4, 2-Bromo-3-oxotirucalla-8,24Z-dien-26-oic Acid]
Cytotoxic / antiproliferative profile across the cancer cell line panel (in words) [1]: intermediate activity across multiple cell lines
IC50 [2]: 14.7 ± 3.3 µM
IC50 [3]: > 50 µM
IC50 [4]: > 50 µM
IC50 (LN-229 (glioblastoma)): 28.5 ± 5.3 µM
IC50 [5]: 20.5 ± 3.9 µM
IC50 [6]: 9.4 ± 1.5 µM
IC50 [7]: 22 ± 0.8 µM
IC50 [8]: 25.1 ± 1.9 µM

C/C(=C/CC[C@H](C)[C@@H]1CC[C@]2(C)C3=C(CC[C@@]12C)[C@@]1(C)CC(SC#N)C(=O)C(C)(C)C1CC3)C(=O)O (mixture of isomers) [Compound 6, 2-Thiocyanate-3-oxotirucalla-8,24Z-dien-26-oic Acid]
Cytotoxic / antiproliferative profile across the cancer cell line panel (in words) [1]: broader antiproliferative activity
IC50 [2]: 15 ± 1.2 µM
IC50 [3]: 35 ± 3.9 µM
IC50 [4]: 17.9 ± 0.4 µM
IC50 (LN-229 (glioblastoma)): 23.3 ± 2.9 µM
IC50 [5]: 18.5 ± 0.7 µM
IC50 [6]: 7.4 ± 1 µM
IC50 [7]: 24.3 ± 1.4 µM
IC50 [8]: 21.3 ± 2.3 µM

C/C(=C/CC[C@H](C)[C@@H]1CC[C@]2(C)C3=C(CC[C@@]12C)[C@@]1(C)Cc2cnoc2C(C)(C)[C@@H]1CC3)C(=O)O [Compound 3, (S,Z)-2-Methyl-6-((1S,3aS,5aR,10aS,12aS)-3a,6,6,10a,12a-pentamethyl-2,3,3a,4,5,5a,6,10,10a,11,12,12a-dodecahydro-1H-cyclopenta[7,8]phenanthro[3,2-d]isoxazol-1-yl)hept-2-enoic Acid]
Cytotoxic / antiproliferative profile across the cancer cell line panel (in words) [1]: selective cytotoxicity toward Capan-1
IC50 [2]: > 50 µM
IC50 [3]: > 50 µM
IC50 [4]: > 50 µM
IC50 (LN-229 (glioblastoma)): > 50 µM
IC50 [5]: > 50 µM
IC50 [6]: 6.7 ± 0.4 µM
IC50 [7]: > 50 µM
IC50 [8]: > 50 µM

C/C(=C/CC[C@H](C)[C@@H]1CC[C@]2(C)C3=C(CC[C@@]12C)[C@@]1(C)Cc2sc(N)nc2C(C)(C)[C@@H]1CC3)C(=O)O [Compound 5, (S,Z)-6-((1S,3aS,5aR,10aS,12aS)-8-Amino-3a,6,6,10a,12a-pentamethyl-2,3,3a,4,5,5a,6,10,10a,11,12,12a-dodecahydro-1H-cyclopenta[7,8]phenanthro[2,3-d]thiazol-1-yl)-2-methylhept-2-enoic Acid]
Cytotoxic / antiproliferative profile across the cancer cell line panel (in words) [1]: intermediate activity across multiple cell lines
IC50 [2]: 19.5 ± 3.2 µM
IC50 [3]: > 50 µM
IC50 [4]: 25 ± 1.4 µM
IC50 (LN-229 (glioblastoma)): 27.9 ± 2.9 µM
IC50 [5]: 19 ± 2 µM
IC50 [6]: 23.5 ± 2.4 µM
IC50 [7]: 28.2 ± 1.9 µM
IC50 [8]: 24.5 ± 7.2 µM

C/C(=C/CC[C@H](C)[C@@H]1CC[C@]2(C)C3=C(CC[C@@]12C)[C@@]1(C)Cc2sc(N4CCOCC4)nc2C(C)(C)[C@@H]1CC3)C(=O)O [Compound 7, (S,Z)-2-Methyl-6-((1S,3aS,5aR,10aS,12aS)-3a,6,6,10a,12a-pentamethyl-8-morpholino-2,3,3a,4,5,5a,6,10,10a,11,12,12a-dodecahydro-1H-cyclopenta[7,8]phenanthro[2,3-d]thiazol-1-yl)hept-2-enoic Acid]
Cytotoxic / antiproliferative profile across the cancer cell line panel (in words) [1]: selective cytotoxicity toward Capan-1
IC50 [2]: > 50 µM
IC50 [3]: > 50 µM
IC50 [4]: > 50 µM
IC50 (LN-229 (glioblastoma)): > 50 µM
IC50 [5]: > 50 µM
IC50 [6]: 26 ± 0.4 µM
IC50 [7]: > 50 µM
IC50 [8]: > 50 µM

C/C(=C/CC[C@H](C)[C@@H]1CC[C@]2(C)C3=C(CC[C@@]12C)[C@]1(C)C(CC3)C(C)(C)C(=O)O[C@@H]1O)C(=O)O (stereo partly drawn) [Compound 9, 1α-hydroxy-3-oxa-nor-tirucalla-8,24Z-dien-26-oic acid]
IC50 [2]: > 50 µM
IC50 [3]: > 50 µM
IC50 [4]: > 50 µM
IC50 (LN-229 (glioblastoma)): > 50 µM
IC50 [5]: > 50 µM
IC50 [6]: 39.4 ± 1.5 µM
IC50 [7]: > 50 µM
IC50 [8]: > 50 µM
Cytotoxic / antiproliferative profile across the cancer cell line panel (in words) [9]: selective cytotoxicity toward Capan-1

C/C(=C/CC[C@H](C)[C@@H]1CC[C@]2(C)C3=C(CC[C@@]12C)[C@@]1(C)CC(=O)C(C)(C)C1CC3)C(=O)O (some centres unmarked) [Compound 11, 3-One-1(2→3)-abeotirucalla-8,24Z-dien-26-oic Acid]
IC50 [2]: 29.6 ± 8.9 µM
IC50 [3]: > 50 µM
IC50 [4]: > 50 µM
IC50 (LN-229 (glioblastoma)): > 50 µM
IC50 [5]: 49.3 ± 0.8 µM
IC50 [6]: 24.6 ± 2.1 µM
IC50 [7]: > 50 µM
IC50 [8]: > 50 µM
Cytotoxic / antiproliferative profile across the cancer cell line panel (in words) [9]: more limited and restricted cytotoxic profile

COc1cc([C@@H]2c3cc4c(cc3[C@@H](O[C@@H]3O[C@@H]5CO[C@@H](C)O[C@H]5[C@H](O)[C@H]3O)[C@H]3COC(=O)[C@H]23)OCO4)cc(OC)c1O [Etoposide, reference compound]
Toxicity to normal PBMCs ([10]; 10 µM): did not display toxicity
IC50 [2]: 0.3 ± 0.12 µM
IC50 [3]: 4.47 ± 0.11 µM
IC50 [4]: 0.08 ± 0.007 µM
IC50 (LN-229 (glioblastoma)): 4.8 ± 0.87 µM
IC50 [5]: 0.08 ± 0.03 µM
IC50 [6]: 0.24 ± 0.01 µM
IC50 [7]: 1.09 ± 0.19 µM
IC50 [8]: 2.36 ± 0.7 µM
Cytotoxic / antiproliferative profile across the cancer cell line panel (in words) [9]: potent antiproliferative activity against all cancer cell lines

C/C(=C/CC[C@H](C)[C@@H]1CC[C@]2(C)C3=C(CC[C@@]12C)[C@@]1(C)CCC(=O)C(C)(C)C1CC3)C(=O)O (some centres unmarked) [IMNA, 24Z-isomasticadienonic acid]
Effect on viability of normal PBMCs ([10]; 50 µM): none of the analogues (compounds 3–11 and IMNA) decreased the viability
IC50 [2]: 21.7 ± 3.1 µM
IC50 [3]: > 50 µM
IC50 [4]: 32.7 ± 3.2 µM
IC50 (LN-229 (glioblastoma)): > 50 µM
IC50 [5]: 34.2 ± 2.5 µM
IC50 [6]: 26.5 ± 1.6 µM
IC50 [7]: 42.3 ± 2.3 µM
IC50 [8]: > 50 µM
Cytotoxic / antiproliferative profile across the cancer cell line panel (in words) [9]: intermediate activity across multiple cell lines
